Assays:
[1] = PK of single agents vs fixed dose combinations, single dose in healthy volunteers (Example 13); assay type: in vivo, human
Experimental: SMV (100 mg), ODV (50 mg), and Compound (III) (800 mg) were administered as three different formulations or together as single doses in vivo to healthy volunteers. The arms of the study included: • Arm 1 (Reference Arm): Single oral doses of single agents, one SMV 100-mg capsule, one ODV 50-mg tablet as granule layered solid dispersion with copovidone and poloxamers, and two Compound (III) 400-mg tablets, administered together. • Arm 2: Single oral dose of fixed dose combination (FDC02): SMV 100 mg+ODV 50 mg as a spray dried solid dispersion with HPMC-AS L in a ratio ODV/HPMC-AS L 1/1 w/w+Compound (III) 800 mg • Arm 3: Single oral dose of fixed dose combination (FDC04): SMV 100 mg+ODV 50 mg as a spray dried solid dispersion with HPMC-AS L in a ratio ODV/HPMC-AS L 1/3 w/w+Compound (III) 800 mg • Arm 4: Single oral dose of fixed dose combination (FDC01): SMV 100 mg+ODV 50 mg as a spray dried solid dispersion with copovidone and poloxamers+Compound (III) 800 mg
PK parameters, including Cmax, tmax, AUClast, and AUC∞ were measured for Compound (III), ODV, SMV, and metabolites Compound A-1 and Compound A-3 for each Arm of the study. Arms that included fixed dose combinations (FDC) (Arm 2, Arm 3, and Arm 4) were then compared to a single oral dose (Arm 1, the reference Arm). Table 9, Table 10, Table 11, Table 12 and Table 13 display relevant PK parameters and FIG. 9, FIG. 10, FIG. 11, FIG. 12, and FIG. 13 depict the plasma concentration over time of SMV, ODV, Compound A-1, and Compound A-3 for each Arm of the study.

BSEP = BSEP (Homo sapiens, UniProt O95342); details: cited from earlier work
BSEP, sequence (O95342 whole entry): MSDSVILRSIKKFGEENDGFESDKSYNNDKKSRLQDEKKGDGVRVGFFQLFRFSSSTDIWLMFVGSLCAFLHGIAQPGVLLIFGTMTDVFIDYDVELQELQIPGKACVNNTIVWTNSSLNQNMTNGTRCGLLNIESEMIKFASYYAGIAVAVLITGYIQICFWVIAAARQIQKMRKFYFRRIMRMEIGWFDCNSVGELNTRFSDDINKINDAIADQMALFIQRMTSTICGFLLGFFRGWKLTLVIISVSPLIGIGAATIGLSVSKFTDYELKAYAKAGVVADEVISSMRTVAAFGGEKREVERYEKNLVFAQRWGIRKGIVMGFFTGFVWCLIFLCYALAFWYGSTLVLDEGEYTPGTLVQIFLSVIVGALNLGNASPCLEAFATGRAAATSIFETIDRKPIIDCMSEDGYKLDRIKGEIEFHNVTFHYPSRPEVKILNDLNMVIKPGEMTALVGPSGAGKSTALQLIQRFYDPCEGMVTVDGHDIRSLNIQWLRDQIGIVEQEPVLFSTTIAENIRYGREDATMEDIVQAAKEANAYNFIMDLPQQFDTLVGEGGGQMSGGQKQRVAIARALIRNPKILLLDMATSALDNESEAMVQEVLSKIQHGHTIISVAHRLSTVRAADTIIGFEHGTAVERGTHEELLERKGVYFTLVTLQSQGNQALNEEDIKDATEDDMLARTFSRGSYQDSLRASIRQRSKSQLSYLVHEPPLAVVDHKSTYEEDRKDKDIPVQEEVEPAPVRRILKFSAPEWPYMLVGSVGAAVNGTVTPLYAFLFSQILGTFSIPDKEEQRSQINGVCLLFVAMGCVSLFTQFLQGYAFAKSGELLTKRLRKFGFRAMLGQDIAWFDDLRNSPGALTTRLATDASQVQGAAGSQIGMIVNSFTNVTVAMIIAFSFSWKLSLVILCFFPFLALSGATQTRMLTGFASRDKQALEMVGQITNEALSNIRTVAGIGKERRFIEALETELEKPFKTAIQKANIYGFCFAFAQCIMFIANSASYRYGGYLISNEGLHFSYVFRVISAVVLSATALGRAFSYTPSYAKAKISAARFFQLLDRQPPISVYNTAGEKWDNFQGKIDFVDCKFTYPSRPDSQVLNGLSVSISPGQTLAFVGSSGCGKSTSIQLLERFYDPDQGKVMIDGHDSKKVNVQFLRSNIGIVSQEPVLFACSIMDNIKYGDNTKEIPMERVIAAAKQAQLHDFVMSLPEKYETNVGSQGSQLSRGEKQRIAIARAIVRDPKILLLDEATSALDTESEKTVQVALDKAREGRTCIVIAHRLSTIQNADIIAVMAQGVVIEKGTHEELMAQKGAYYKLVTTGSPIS

With `COC(=O)N[C@H](C(=O)N1[C@H](c2nc3cc(-c4cc5ccc4CCc4ccc(c(-c6ccc7[nH]c([C@@H]8C[C@@H]9CCCC[C@@H]9N8C(=O)[C@@H](NC(=O)OC)C(C)C)nc7c6)c4)CC5)ccc3[nH]2)C[C@@H]2CCCC[C@@H]21)C(C)C` [Odalasvir, methyl [(2,)-1-[(2S,3aS,7aS)-2-[6-[11-[2-[(2S,3aS,7aS)-1-[(2S)-2-[(methoxycarbonyl)amino]-3-methylbutanoyl]octahydro-1H-indol-2-yl]-1H-benzimidazol-6-yl]tricyclo[8.2.2.2^4,7]hexadeca-1(12),4,6,10,13,15-hexaen-5-yl]-1H-benzimidazol-2-yl]octahydro-1H-indol-1-yl]-3-methyl-1-oxobutan-2-yl]carbamate] the t1/2term ([1]; Arm 1 (reference): single agents, mean ± SD) was 168.6 ± 21.7 h, the “Least Square Means Ratio, Cmax” value ([1]; Arm 2 (FDC02) vs reference) was 81.00% and the “AUC∞” value ([1]; Arm 2: FDC02, mean ± SD) was 7040 ± 2130 ng·h/mL. It also gave a t1/2term ([1]; Arm 2: FDC02, mean ± SD) of 169.0 ± 24.5 h, a t1/2term ([1]; Arm 3: FDC04, mean ± SD) of 176.0 ± 29.5 h and a Cmax ([1]; Arm 4: FDC01 (SMV 100 mg + ODV 50 mg spray dried with copovidone and poloxamers + Compound (III) 800 mg), mean ± SD) of 298 ± 81.7 ng/mL. The AUClast ([1]; Arm 4: FDC01, mean ± SD) was 11127 ± 3354 ng·h/mL, the t1/2term ([1]; Arm 4: FDC01, mean ± SD) was 167.8 ± 22.4 h and the “in vitro inhibition of BSEP” value (BSEP) was “no inhibition”.
